How the values were obtained:
[1] = HPLC of methanol extracts: drug loading of coated ePTFE hernia mesh; format: physicochemical; details: soak in 10 mg/ml of each drug in methanol, ~17 hours, 4° C
Description: Specimens were then removed from drug solution and dried in air. Following air-drying, specimens were rinsed in either methanol) or water. For the methanol rinse, specimens were suspended using forceps and agitated by hand in two consecutive 15 ml methanol rinses for 15 seconds, then allowed to air dry. For the water rinse, specimens were transferred to 10 ml of deionized water in conical tubes and aggressively vortexed for 2 minutes. Specimens were then allowed to air dry. The above steps resulting in the following four conditions: (a) 1 coat—water rinse; (b) 3 coats—water rinse; (c) 1 coat—methanol rinse; and (d) 3 coat—methanol rinse.
Dried specimens were individually extracted in 1 ml of methanol at 4° C. for 64 or 76 hours. 20 μl of each extract were run on HPLC to assess the effects of rinse method and number of coating cycles on drug loading of the coatings. HPLC conditions were as follows: 30° C.; 250×3 mm C-18 with 5 μm packing; 280 nm absorbance; Channel A—35 mM Na2HPO4 with 1 vol % triethylamine, pH=8.1 w/phosphoric acid; Channel B—acetonitrile/Running parameters at 1 ml/min: (i) 0-10 minutes—gradient 0-50 vol % Channel B; (ii) 10-20 minutes—50 vol % Channel B; (iii) 20-25 minutes—20-0 vol % Channel B.

[2] = HPLC test of drug stability to curing light in coating composition components
Description: HPLC tests were performed to assess the effects of various components of the coating composition on drug stability. HPLC analysis was run on the starting 50 μg/ml drug solution as a control. HPLC parameters were as follows: Channel A=>35 mM sodium phosphate pH=7.5 w/1 v % TEA; Channel B=>acetonitrile; 0-50% B 0-10 min, 50% B 10-13 min, 50-0% B 13-15 min, 0% B 6 min post time; 20 μl injections; 1 ml/min; 30° C.; 335 nm. […] Samples tested included: (1) Solvent+Drug; (2) Solvent+Photoinitiator (PI)+Drug; and (3) Solvent+Monomer Component+PI+Drug. […] The Solvent+PI+Drug (Sample 2) samples were prepared as follows: 1% wt/wt IrgaCure® 2959 was added to the 50 μg/ml drug solution solutions and cured according to the parameters described for Formulation 5 in Table 2. The Solvent+Monomer Component+PI+Drug+Drug (Sample 3) were prepared as follows: ˜3 ml Formulation 5 (Table 2) inspired solution with exception of using the 50 μg/ml drug solution and 20 wt % comonomer as the solvent was created and exposed to cure parameters detailed for Formulation 5 (Table 2) followed by HPLC analysis upon blending 1:1 with methanol, to terminate polymerization reaction/free-radicals. Note: polymerization of small volumes of Formulation 5 results in evaporation of the acetone solvent, thereby concentrating the monomers. […] FIG. 5A depicts HPLC chromatograms from the Sample 1 (dark gray line) and Sample 2 (light gray line) without exposure to light. […] FIG. 5B depicts chromatograms from the Sample 1 samples without light exposure and with light exposure. […] FIG. 5C depicts chromatograms from Sample 2 without light exposure and with light exposure. […] FIG. 5D depicts chromatograms from Sample 1 and Sample 3 after exposure to light.

CO[C@H]1/C=C/O[C@@]2(C)Oc3c(C)c(O)c4c(O)c(c(/C=N/N5CCN(C)CC5)c(O)c4c3C2=O)NC(=O)/C(C)=C\C=C\[C@H](C)[C@H](O)[C@@H](C)[C@@H](O)[C@@H](C)[C@H](OC(C)=O)[C@@H]1C [rifampin]
absorption of drug into polymerized coating [1]: absorbed into the methacrylate coating matrix
drug stability (HPLC peaks) ([2]; 50 μg/ml in acetone, with or without photoinitiator, without exposure to light, FIG. 5A): stable
drug stability (HPLC peaks) ([2]; Sample 1, solvent alone, with light exposure, FIG. 5B): degraded by light exposure
drug stability (HPLC peaks) ([2]; Sample 2, solvent + 1% wt/wt IrgaCure 2959, with light exposure, FIG. 5C): did not protect the drugs from light-induced degradation

Reference: patent publication US10314912B2, “Polymer coating compositions and coated products” (Ariste Medical, LLC, priority 2012, dated 2019)
